From patent US20160024421A1, “IONIC LIQUIDS CONTAINING QUATERNARY PHOSPHONIUM CATIONS AND CARBOXYLATE ANIONS, AND THEIR USE AS LUBRICANT ADDITIVES” (UT-Battelle, LLC, priority 2014, published 2016)
Where two headings read alike, the source gives them in different places.

Columns and labels:
Format in all cases: physicochemical
Density = test: Density
[1] = Kinematic viscosity (Petrolab Minivis II viscometer); set-up: unit not given here
Description: (§1) Thermogravimetric analysis (TGA) was performed on a thermogravimetric analyzer (TGA-2950, TA instruments) at a 10° C./min heating rate in air. […] The kinematic viscosities were measured on a […] viscometer.

[2] = Thermogravimetric analysis (decomposition temperature)
Description: as §1

Row | Compound | Density @ 20° C. (Density; 20° C.) | Kinematic Viscosity @ 40° C. ([1]; 40° C.) | Decomp. temperature ([2]; TGA, 10° C./min heating rate in air) | Decomp. temperature [2] | Density @ 20° C. (Density) | Kinematic Viscosity @ 40° C. [1]
1 | CCCCCCCCCC(=O)[O-].CCCCCCCCCCCCCC[P+](CCCCCC)(CCCCCC)CCCCCC [[P66614][C9H19COO]s] | 0.89 g/mL | solid | – | – | – | –
2 | CCCCCCCCCCCCCCCCCC(=O)[O-].CCCCCCCCCCCCCC[P+](CCCCCC)(CCCCCC)CCCCCC [[P66614][C17H35COO]s] | 0.88 g/mL | – | 308 °C | – | – | –
3 | trihexyltetradecylphosphonium 2-ethylhexanoate [[P66614][C7H15COO]b] | – | – | – | 308 °C | 0.88 g/mL | 184.8
4 | trihexyltetradecylphosphonium octanoate [[P66614][C7H15COO]s] | – | – | – | 261 °C | – | 122.2
